A value given as a limit tells only on which side of the number the result lay.

Assay [1] addresses T1, Histidine tagged HIF-2α protein containing PAS-B domain (240-350) (Homo sapiens, UniProt Q99814).
T1 construct: Histidine tagged HIF-2α protein containing PAS-B domain (240-350) was prepared and purified in house; made in house
Kind of assay: HIF-2α Scintillation Proximity Assay (SPA). The assay is classed as binding. To be noted: 50 nM HIF-2α protein, 25 nM radiolabeled tracer; read-out: HIF-2α Scintillation Proximity Assay. As for the experimental part:
Tritium labeled compound N-(3-chlorophenyl)-4-nitro-2,1,3-benzoxadiazol-5-amine was obtained from American Radiolabeled Chemicals Inc. and copper chelate PVT SPA beads were from PerkinElmer (Cat #RPNQ0095). Histidine tagged HIF-2α protein containing PAS-B domain (240-350) was prepared and purified in house.
Compounds solubilized in DMSO were dispensed into a white 384-well polystyrene non-binding flat clear bottom plate (Greiner Bio-One, Cat #781903) using an HP D300 dispenser. Ten microliters of HIS-tagged HIF-2α protein in buffer (25 mM Tris-HCl, pH 7.4, 150 mM NaCl, 0.15% BSA and 0.001% Tween 20) was added to the compound wells and allowed to incubate for 1 hour at room temperature. Ten microliters of SPA bead mix were added to the wells and incubated for an additional 45 minutes, followed by 10 ul of ^3H-tracer solution. Final assay conditions comprised 50 nM HIF-2α protein, 25 nM radiolabeled tracer and 3 ug beads per well with compounds in 2% DMSO. The plate was read using a MicroBeta Microplate Counter (PerkinElmer) for luminescence detection. The IC50 values of the test compounds were determined from compound dose response curves fitted using a standard four parameter fit equation and are reported in Table 1.
Background: In a scintillation proximity assay essentially only radioactivity close to the scintillant gives light.

Another assay concerns the target T2, HIF-2α (Homo sapiens, UniProt Q99814).
T2 construct: endogenous in cells; host or cells: 786-O cells (ATCC CRL-1932) stably carrying the Cignal Lenti HIF Luc Reporter
In words: HIF-2α Luciferase Reporter Assay. Particulars: HIF-Luc-786-0 cells, 20 hours incubation, luciferase activity; read-out: HIF-2α Luciferase Assay. Type of assay: cell-based. Here is the method: Stable cell lines were generated by transducing 786-O cells (ATCC, CRL-1932) with Cignal Lenti HIF Luc Reporter lentivirus (CLS-007L, Qiagen) according to the manufacturer's guidelines. In brief, 0.3×10^6 786-0 cells were transduced with lentivirus at a Multiplicity of Infection (MOI) of 25 for 24 hours. After transduction, cells were replenished with fresh RPMI 1640 Medium (Cat. No. 11875085, Thermo Fisher,) supplemented with 10% FBS (Cat. No. A3160502, Gibco), 2 mM GlutaMax (Cat. No. 35050-061, Invitrogen) and 100 units of penicillin and 100 μg of streptomycin/mL (Cat. No 15070063, Thermo Fisher) for another 24 hours. Antibiotic selection was performed in cell media containing 4 μg/mL of Puromycin. After 7 days of antibiotic selection, stable pools of surviving cells were expanded and used in a luciferase reporter assay.
On day one, 20 uL of HIF-Luc-786-0 cells in OptiMem (Cat. No. 31985088, Thermo Fisher) were seeded into each well of a 384 well white opaque plate (Corning 3570) and incubated at 37° C. and 5% CO2. Twenty microliters of 2× test compounds in OptiMem were added to cells after 4 hours of incubation. Final assay conditions comprised 20,000 cells per well in 1% DMSO with test compound concentrations ranging from 50 uM to 0 uM. After 20 hours incubation at 37° C. and 5% CO2, luciferase activity was determined using ONE-Glo Luciferase Assay Reagent (E6110, Promega) following the manufacture's recommended procedure. Briefly, 40 uL of ONE-Glo luciferase reagents were added to each well and luciferase signals were measured using an Envision 2102 Multilabel Reader. Percentage maximum activity in each test well was calculated based on DMSO (maximum activity) and no cell control wells (baseline activity). The IC50 values of the test compounds were determined from compound dose response curves fitted using a standard four parameter fit equation.
A general note: Reporter assays use an easily measured gene product as a stand-in for the process of interest.

T1 sequence (Q99814 240-350): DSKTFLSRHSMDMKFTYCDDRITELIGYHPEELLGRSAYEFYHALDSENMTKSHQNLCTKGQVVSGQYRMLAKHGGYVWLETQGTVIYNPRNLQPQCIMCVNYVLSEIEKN
T2 sequence (Q99814 whole entry): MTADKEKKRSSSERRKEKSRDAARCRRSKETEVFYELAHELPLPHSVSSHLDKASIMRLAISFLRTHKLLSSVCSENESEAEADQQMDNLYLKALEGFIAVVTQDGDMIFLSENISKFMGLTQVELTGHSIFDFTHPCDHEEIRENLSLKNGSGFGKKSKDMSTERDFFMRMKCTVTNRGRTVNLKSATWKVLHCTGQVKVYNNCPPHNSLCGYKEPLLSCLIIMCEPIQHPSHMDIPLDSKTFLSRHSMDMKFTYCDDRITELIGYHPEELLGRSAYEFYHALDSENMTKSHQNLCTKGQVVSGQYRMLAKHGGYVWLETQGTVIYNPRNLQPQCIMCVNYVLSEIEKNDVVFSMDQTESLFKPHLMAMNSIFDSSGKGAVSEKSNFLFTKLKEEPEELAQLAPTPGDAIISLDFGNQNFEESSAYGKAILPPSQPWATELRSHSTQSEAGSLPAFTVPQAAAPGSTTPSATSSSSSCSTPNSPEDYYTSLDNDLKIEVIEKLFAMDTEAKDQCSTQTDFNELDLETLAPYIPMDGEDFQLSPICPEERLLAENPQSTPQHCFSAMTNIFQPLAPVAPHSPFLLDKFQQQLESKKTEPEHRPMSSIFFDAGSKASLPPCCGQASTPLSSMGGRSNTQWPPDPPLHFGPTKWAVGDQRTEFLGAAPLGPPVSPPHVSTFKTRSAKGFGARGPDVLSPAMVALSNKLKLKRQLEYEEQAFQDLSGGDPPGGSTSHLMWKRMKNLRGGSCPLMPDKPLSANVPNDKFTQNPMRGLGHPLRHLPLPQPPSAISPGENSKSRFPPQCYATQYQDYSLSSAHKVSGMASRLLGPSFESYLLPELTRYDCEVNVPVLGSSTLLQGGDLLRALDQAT

As to `N#Cc1ccc(Oc2ccc(S(=O)(=O)C(F)(F)F)c3[nH]ncc23)cc1` [Example 19, p[7-(Trifluoromethylsulfonyl)-1H-indazol-4-yloxy]benzonitrile], the values for the IC50 (in assay [1]; at HIF-2α) were greater than 10 µM and 1 to 10 µM, respectively.
For the compound `CS(=O)(=O)c1ccc(Nc2cc(F)cc(C#N)c2)c2c(F)n[nH]c12` [Example 2, 3-Fluoro-5-[(3-fluoro-7-methanesulfonyl-1H-indazol-4-yl)amino]benzonitrile], the IC50 in assay [1] was greater than 10 µM; at HIF-2α, 1 to 10 µM.
The corresponding values for `O=S(=O)(c1ccc(NCc2ccccc2)c2cn[nH]c12)C(F)(F)F` [Example 51, N-benzyl-7-(trifluoromethylsulfonyl)-1H-indazol-4-amine] are greater than 10 µM and greater than 10 µM.
Regarding `CS(=O)(=O)c1ccc(Oc2cc(F)cc(Cl)c2)c2c(Cl)n[nH]c12` [Example 9, 3-Chloro-4-(3-chloro-5-fluorophenoxy)-7-methanesulfonyl-1H-indazole], the values for the IC50 (in assay [1]; at HIF-2α) were greater than 10 µM and 1 to 10 µM, respectively.
The corresponding values for `O=S(=O)(c1ccc(NCc2ccc(F)cc2Cl)c2cn[nH]c12)C(F)(F)F` [Example 54, N-[(2-chloro-4-fluorophenyl)methyl]-7-(trifluoromethylsulfonyl)-1H-indazol-4-amine] are greater than 10 µM and greater than 10 µM.
The corresponding values for `N#Cc1cc(F)cc(Oc2ccc(S(=O)(=O)C(F)F)c3[nH]ncc23)c1` [Example 12, 5-[7-(Difluoromethylsulfonyl)-1H-indazol-4-yloxy]-3-fluorobenzonitrile] are 1 to 10 µM and 1 to 10 µM.
`N#Cc1cccc(Oc2ccc(S(=O)(=O)C(F)(F)F)c3[nH]nc(Cl)c23)c1` [Example 62, m-[3-Chloro-7-(trifluoromethylsulfonyl)-1H-indazol-4-yloxy]benzonitrile]: the IC50 in assay [1] was less than 1 µM; on HIF-2α, greater than 10 µM.
The corresponding values for `O=S(=O)(c1ccc(Oc2ccc(Cl)cc2)c2cn[nH]c12)C(F)(F)F` [Example 17, 4-(p-Chlorophenoxy)-7-(trifluoromethylsulfonyl)-1H-indazole] are greater than 10 µM and 1 to 10 µM.
Taken in the same sequence, the figures for `O=S(=O)(c1ccc(Oc2ccc(F)cc2)c2cn[nH]c12)C(F)(F)F` [Example 18, 4-(p-Fluorophenoxy)-7-(trifluoromethylsulfonyl)-1H-indazole] were greater than 10 µM and 1 to 10 µM.
The corresponding values for `O=S(=O)(c1ccc(NCc2ccccc2F)c2cn[nH]c12)C(F)(F)F` [Example 50, N-[(2-Fluorophenyl)methyl]-7-(trifluoromethylsulfonyl)-1H-indazol-4-amine] are greater than 10 µM and greater than 10 µM.
With `O=S(=O)(c1ccc(Oc2cc(F)cc(F)c2)c2cn[nH]c12)C(F)(F)F` [Example 25, 4-(3,5-Difluorophenoxy)-7-trifluoromethanesulfonyl-1H-indazole], the IC50 (in assay [1]; at HIF-2α) was less than 1 µM each time.
For the compound `Cc1n[nH]c2c(S(=O)(=O)C(F)(F)F)ccc(Oc3cc(F)cc(C#N)c3)c12` [Example 58, 3-Fluoro-5-[(3-methyl-7-trifluoromethanesulfonyl-1H-indazol-4-yl)oxy]benzonitrile], the IC50 (in assay [1]; on HIF-2α) was 1 to 10 µM throughout.
Turning to `Cc1cncc(Oc2ccc(S(=O)(=O)C(F)(F)F)c3[nH]ncc23)n1` [Example 21, 4-[(6-Methylpyrazin-2-yl)oxy]-7-trifluoromethanesulfonyl-1H-indazole], the IC50 (in assay [1]; at HIF-2α) was greater than 10 µM each time.
Take `O=S(=O)(c1ccc(Oc2cc(F)c(F)c(F)c2)c2cn[nH]c12)C(F)(F)F` [Example 30, 7-(Trifluoromethylsulfonyl)-4-(3,4,5-trifluorophenoxy)-1H-indazole]: the IC50 in assay [1] was 1 to 10 µM; at HIF-2α, greater than 10 µM.

The values above are taken from patent US20230024438A1, “INHIBITORS OF HIF-2ALPHA” (ARCUS BIOSCIENCES, INC., priority 2019, published 2023).
